ChEMBL document CHEMBL4382204 (Eur J Med Chem, 2018)
Active and inactive are the calls of the source. The rule behind the calls is not given here.

Assays:
[1] = Cmax in mouse at 10 mg/kg, po by LC-MS/MS analysis; type: ADME, organism-based; set-up: dose 10 mg/kg, route oral; conditions: in vivo
[2] = biological target: Tyrosine-protein kinase ABL1 (Homo sapiens, UniProt P00519, T315I); assay: Inhibition of inactive wild type His-tagged ABL T315I mutant (229 to 500 residues) (unknown origin) expressed in baculovirus infected sf9 cells assessed as reduction in autophosphorylation preincubated for 60 mins followed by ATP addition measured after 8 hrs by ADP-Glo assay
[3] = Tmax in mouse at 1 mg/kg, iv by LC-MS/MS analysis; type: ADME, organism-based; conditions: in vivo
[4] = tested on: Bcr/Abl fusion protein (Homo sapiens), P00519+P11274 [H396P]; conditions: BaF3
[5] = biological target: Receptor-type tyrosine-protein kinase FLT3 (Homo sapiens) (UniProt P36888); assay: Inhibition of wild type C-terminal FLAG-tagged human TEL fused FLT3 (unknown origin) transfected in mouse BAF3 cells assessed as growth inhibition after 72 hrs by CCK8 assay; type: cell-based
BaF3 [6] = assay: Antitumor activity against mouse BAF3 cells expressing BCR/ABL T315I mutant allografted in po dosed nu/nu mouse assessed as tumor growth inhibition administered daily via gavage for 13 days; type: functional, organism-based
Bcr/Abl fusion protein [7] = biological target: T1, Bcr/Abl fusion protein (Homo sapiens, UniProt P00519, T315I); assay: Inhibition of BCR/ABL T315I mutant (unknown origin) expressed in mouse BAF3 cells assessed as inhibition of ErK phosphorylation after 1 hr by immunoblotting analysis; type: cell-based
[8] = AUC (0 to infinity) in Sprague-Dawley rat at 10 mg/kg, po by LC-MS/MS analysis; type: ADME, organism-based; set-up: dose 10 mg/kg, time infinity, route oral; conditions: in vivo
[9] = biological target: T2, Bcr/Abl fusion protein (Homo sapiens) (UniProt P00519+P11274); assay: (§1) Inhibition of BCR/ABL in human KU812 cells assessed as inhibition of BCR/ABL autophosphorylation at Y245 site after 1 hr by immunoblotting analysis; type: cell-based
Bcr/Abl fusion protein [10] = biological target: T3, Bcr/Abl fusion protein (Homo sapiens, UniProt P00519); assay: as §1; type: cell-based
[11] = MRT (0 to t) in Sprague-Dawley rat at 10 mg/kg, po by LC-MS/MS analysis; type: ADME, organism-based; conditions: in vivo
[12] = biological target: Platelet-derived growth factor receptor alpha (Homo sapiens) (UniProt P16234); assay: Inhibition of wild type C-terminal FLAG-tagged human TEL fused PDGFRalpha (unknown origin) transfected in mouse BAF3 cells assessed as growth inhibition after 72 hrs by CCK8 assay; type: cell-based
[13] = biological target: T2, Bcr/Abl fusion protein (Homo sapiens); assay: (§2) Inhibition of BCR/ABL in human MEG01 cells assessed as inhibition of BCR/ABL autophosphorylation at Y245 site after 1 hr by immunoblotting analysis; type: cell-based
Bcr/Abl fusion protein [14] = biological target: T3, Bcr/Abl fusion protein; assay: as §2; type: cell-based
[15] = Toxicity in nu/nu mouse allografted with mouse BAF3 cells expressing BCR/ABL T315I mutant at 25 to 50 mg/kg, po administered daily via gavage for 14 days; type: organism-based; conditions: in vivo, 336 h
[16] = biological target: Macrophage colony-stimulating factor 1 receptor (Homo sapiens) (UniProt P07333); assay: Inhibition of wild type C-terminal FLAG-tagged human TEL fused CSF1R (unknown origin) transfected in mouse BAF3 cells assessed as growth inhibition after 72 hrs by CCK8 assay; type: cell-based
[17] = biological target: Cytoplasmic tyrosine-protein kinase BMX (Homo sapiens) (UniProt P51813); assay: Inhibition of wild type C-terminal FLAG-tagged human TEL fused BMX (unknown origin) transfected in mouse BAF3 cells assessed as growth inhibition after 72 hrs by CCK8 assay; type: cell-based
Bcr/Abl fusion protein [18] = biological target: T1, Bcr/Abl fusion protein; assay: Inhibition of BCR/ABL T315I mutant (unknown origin) expressed in mouse BAF3 cells assessed as inhibition of BCR/ABL T315I mutant autophosphorylation at Y245 site after 1 hr by immunoblotting analysis; type: cell-based
[19] = biological target: Epithelial discoidin domain-containing receptor 1 (Homo sapiens) (UniProt Q08345); assay: Inhibition of wild type C-terminal FLAG-tagged human TEL fused DDR1 (unknown origin) transfected in mouse BAF3 cells assessed as growth inhibition after 72 hrs by CCK8 assay; type: cell-based
[20] = tested on: Bcr/Abl fusion protein (Homo sapiens), P00519+P11274 [T315I]; conditions: BaF3
[21] = Apparent clearance during terminal phase in mouse at 10 mg/kg, po by LC-MS/MS analysis; type: ADME, organism-based; conditions: in vivo, read-out: CLz/F (converted)
[22] = biological target: T2, Bcr/Abl fusion protein (Homo sapiens); conditions: BaF3
Description: Inhibition of wild type BCR/ABL (unknown origin) transfected in mouse BAF3 cells assessed as growth inhibition after 72 hrs by CCK8 assay

MEG-01 = assay: Induction of apoptosis in human MEG01 cells assessed as cleaved caspase-3 level up to 0.3 uM after 24 hrs by immunoblotting analysis; type: functional, cell-based
[23] = Apparent clearance during terminal phase in mouse at 1 mg/kg, iv by LC-MS/MS analysis; type: ADME, organism-based; conditions: in vivo
BaF3 [24] = assay: Antitumor activity against mouse BAF3 cells expressing BCR/ABL T315I mutant allografted in nu/nu mouse assessed as tumor growth inhibition at 25 to 50 mg/kg, po administered via gavage for 14 days by Ki-67 staining based assay; type: functional, organism-based
[25] = biological target: Tyrosine-protein kinase ABL1 (Homo sapiens, UniProt P00519); assay: Inhibition of active wild type His-tagged ABL (229 to 500 residues) (unknown origin) expressed in baculovirus infected sf9 cells using ABLtide as substrate after 1 hr by ADP-Glo assay
[26] = AUC (0 to infinity) in Sprague-Dawley rat at 1 mg/kg, iv by LC-MS/MS analysis; type: ADME, organism-based; set-up: dose 1 mg/kg, time infinity, route intravenous; conditions: in vivo
[27] = biological target: T2, Bcr/Abl fusion protein (Homo sapiens); assay: Inhibition of BCR/ABL in human MEG01 cells assessed as inhibition of CrkL phosphorylation up to 0.3 uM after 1 hr by immunoblotting analysis; type: cell-based
[28] = biological target: T2, Bcr/Abl fusion protein (Homo sapiens); assay: Inhibition of BCR/ABL in human MEG01 cells assessed as inhibition of ErK phosphorylation up to 0.3 uM after 1 hr by immunoblotting analysis; type: cell-based
[29] = Apparent volume of distribution during terminal phase in mouse at 10 mg/kg, po by LC-MS/MS analysis; type: ADME, organism-based; conditions: in vivo
[30] = biological target: Proto-oncogene tyrosine-protein kinase receptor Ret (Homo sapiens) (UniProt P07949); assay: Inhibition of wild type C-terminal FLAG-tagged human TEL fused RET (unknown origin) transfected in mouse BAF3 cells assessed as growth inhibition after 72 hrs by CCK8 assay; type: cell-based
[31] = Tmax in Sprague-Dawley rat at 1 mg/kg, iv by LC-MS/MS analysis; type: ADME, organism-based; conditions: in vivo
[32] = biological target: Ephrin type-A receptor 1 (Homo sapiens) (UniProt P21709); assay: Inhibition of wild type C-terminal FLAG-tagged human TEL fused EPHA1 (unknown origin) transfected in mouse BAF3 cells assessed as growth inhibition after 72 hrs by CCK8 assay; type: cell-based
[33] = biological target: Fibroblast growth factor receptor 1 (Homo sapiens) (UniProt P11362); assay: Inhibition of wild type C-terminal FLAG-tagged human TEL fused FGFR1 (unknown origin) transfected in mouse BAF3 cells assessed as growth inhibition after 72 hrs by CCK8 assay; type: cell-based
[34] = Half life in Sprague-Dawley rat at 10 mg/kg, po by LC-MS/MS analysis; type: ADME, organism-based; conditions: in vivo

Fibroblast growth factor receptor 1 (Homo sapiens), sequence (P11362 22-822 limits assumed): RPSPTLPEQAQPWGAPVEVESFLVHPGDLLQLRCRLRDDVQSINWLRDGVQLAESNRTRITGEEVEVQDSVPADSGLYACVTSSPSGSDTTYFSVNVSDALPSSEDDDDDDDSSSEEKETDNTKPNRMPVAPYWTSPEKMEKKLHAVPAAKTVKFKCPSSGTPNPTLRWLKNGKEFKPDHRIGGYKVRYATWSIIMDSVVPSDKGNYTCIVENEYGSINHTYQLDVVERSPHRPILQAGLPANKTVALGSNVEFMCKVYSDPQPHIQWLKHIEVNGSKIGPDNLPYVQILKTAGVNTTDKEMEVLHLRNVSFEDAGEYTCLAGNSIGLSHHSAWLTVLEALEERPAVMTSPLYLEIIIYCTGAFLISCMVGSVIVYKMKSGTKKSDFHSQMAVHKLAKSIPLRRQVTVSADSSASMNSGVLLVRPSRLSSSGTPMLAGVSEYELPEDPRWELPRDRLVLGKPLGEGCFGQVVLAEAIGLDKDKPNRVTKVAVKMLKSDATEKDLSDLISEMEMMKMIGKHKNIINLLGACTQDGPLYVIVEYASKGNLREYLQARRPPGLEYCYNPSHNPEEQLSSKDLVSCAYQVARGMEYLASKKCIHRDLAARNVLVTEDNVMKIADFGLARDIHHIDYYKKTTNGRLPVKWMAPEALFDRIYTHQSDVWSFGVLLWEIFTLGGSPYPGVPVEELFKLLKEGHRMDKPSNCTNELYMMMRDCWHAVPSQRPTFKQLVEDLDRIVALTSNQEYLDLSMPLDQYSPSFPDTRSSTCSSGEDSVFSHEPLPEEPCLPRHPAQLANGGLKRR
Platelet-derived growth factor receptor alpha (Homo sapiens), sequence (P16234 whole entry, the tested form may be a part): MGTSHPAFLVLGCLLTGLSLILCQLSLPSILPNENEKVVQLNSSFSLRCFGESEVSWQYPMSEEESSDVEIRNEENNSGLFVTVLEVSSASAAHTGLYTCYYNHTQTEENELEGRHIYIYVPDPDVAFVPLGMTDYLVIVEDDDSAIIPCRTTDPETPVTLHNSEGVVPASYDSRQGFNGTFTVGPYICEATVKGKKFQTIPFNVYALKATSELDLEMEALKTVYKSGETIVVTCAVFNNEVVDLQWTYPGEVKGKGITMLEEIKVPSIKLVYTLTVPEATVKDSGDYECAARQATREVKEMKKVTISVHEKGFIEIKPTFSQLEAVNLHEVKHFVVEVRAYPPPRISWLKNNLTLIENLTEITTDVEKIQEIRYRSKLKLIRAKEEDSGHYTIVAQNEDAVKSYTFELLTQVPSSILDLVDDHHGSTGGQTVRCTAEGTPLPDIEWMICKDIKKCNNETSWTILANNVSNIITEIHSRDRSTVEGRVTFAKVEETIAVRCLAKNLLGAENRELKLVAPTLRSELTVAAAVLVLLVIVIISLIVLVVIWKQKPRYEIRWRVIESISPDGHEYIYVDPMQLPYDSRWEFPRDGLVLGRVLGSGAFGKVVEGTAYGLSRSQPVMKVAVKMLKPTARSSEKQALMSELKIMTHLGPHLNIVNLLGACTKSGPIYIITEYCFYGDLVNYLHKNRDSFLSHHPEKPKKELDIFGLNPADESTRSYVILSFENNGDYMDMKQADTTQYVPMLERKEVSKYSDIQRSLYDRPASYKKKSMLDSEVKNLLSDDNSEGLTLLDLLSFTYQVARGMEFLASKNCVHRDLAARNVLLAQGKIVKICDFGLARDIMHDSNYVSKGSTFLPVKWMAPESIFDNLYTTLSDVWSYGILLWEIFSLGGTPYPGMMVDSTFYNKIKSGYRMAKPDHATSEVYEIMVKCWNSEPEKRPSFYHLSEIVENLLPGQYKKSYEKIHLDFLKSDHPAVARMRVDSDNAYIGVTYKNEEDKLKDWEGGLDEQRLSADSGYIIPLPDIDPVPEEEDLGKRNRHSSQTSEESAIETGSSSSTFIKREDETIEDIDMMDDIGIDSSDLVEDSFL
Cytoplasmic tyrosine-protein kinase BMX (Homo sapiens), sequence (P51813 whole entry, the tested form may be a part): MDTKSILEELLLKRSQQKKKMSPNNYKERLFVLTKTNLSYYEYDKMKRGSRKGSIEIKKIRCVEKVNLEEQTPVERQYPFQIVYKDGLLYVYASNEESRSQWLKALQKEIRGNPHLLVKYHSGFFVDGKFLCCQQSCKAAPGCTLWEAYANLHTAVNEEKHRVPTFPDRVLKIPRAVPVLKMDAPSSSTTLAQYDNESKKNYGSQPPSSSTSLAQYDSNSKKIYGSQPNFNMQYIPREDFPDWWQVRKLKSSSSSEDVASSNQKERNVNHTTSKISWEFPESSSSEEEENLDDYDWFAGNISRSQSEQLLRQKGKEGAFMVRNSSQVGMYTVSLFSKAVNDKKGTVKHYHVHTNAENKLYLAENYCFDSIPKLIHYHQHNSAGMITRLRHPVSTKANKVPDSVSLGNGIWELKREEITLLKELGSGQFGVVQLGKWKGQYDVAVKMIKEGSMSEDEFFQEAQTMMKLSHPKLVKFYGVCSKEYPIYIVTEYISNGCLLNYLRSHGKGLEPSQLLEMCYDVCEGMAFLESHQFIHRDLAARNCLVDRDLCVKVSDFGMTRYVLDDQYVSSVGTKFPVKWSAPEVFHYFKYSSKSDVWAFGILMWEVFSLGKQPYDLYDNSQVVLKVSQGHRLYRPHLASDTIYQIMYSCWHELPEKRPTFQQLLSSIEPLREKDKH
Ephrin type-A receptor 1 (Homo sapiens), sequence (P21709 whole entry, the tested form may be a part): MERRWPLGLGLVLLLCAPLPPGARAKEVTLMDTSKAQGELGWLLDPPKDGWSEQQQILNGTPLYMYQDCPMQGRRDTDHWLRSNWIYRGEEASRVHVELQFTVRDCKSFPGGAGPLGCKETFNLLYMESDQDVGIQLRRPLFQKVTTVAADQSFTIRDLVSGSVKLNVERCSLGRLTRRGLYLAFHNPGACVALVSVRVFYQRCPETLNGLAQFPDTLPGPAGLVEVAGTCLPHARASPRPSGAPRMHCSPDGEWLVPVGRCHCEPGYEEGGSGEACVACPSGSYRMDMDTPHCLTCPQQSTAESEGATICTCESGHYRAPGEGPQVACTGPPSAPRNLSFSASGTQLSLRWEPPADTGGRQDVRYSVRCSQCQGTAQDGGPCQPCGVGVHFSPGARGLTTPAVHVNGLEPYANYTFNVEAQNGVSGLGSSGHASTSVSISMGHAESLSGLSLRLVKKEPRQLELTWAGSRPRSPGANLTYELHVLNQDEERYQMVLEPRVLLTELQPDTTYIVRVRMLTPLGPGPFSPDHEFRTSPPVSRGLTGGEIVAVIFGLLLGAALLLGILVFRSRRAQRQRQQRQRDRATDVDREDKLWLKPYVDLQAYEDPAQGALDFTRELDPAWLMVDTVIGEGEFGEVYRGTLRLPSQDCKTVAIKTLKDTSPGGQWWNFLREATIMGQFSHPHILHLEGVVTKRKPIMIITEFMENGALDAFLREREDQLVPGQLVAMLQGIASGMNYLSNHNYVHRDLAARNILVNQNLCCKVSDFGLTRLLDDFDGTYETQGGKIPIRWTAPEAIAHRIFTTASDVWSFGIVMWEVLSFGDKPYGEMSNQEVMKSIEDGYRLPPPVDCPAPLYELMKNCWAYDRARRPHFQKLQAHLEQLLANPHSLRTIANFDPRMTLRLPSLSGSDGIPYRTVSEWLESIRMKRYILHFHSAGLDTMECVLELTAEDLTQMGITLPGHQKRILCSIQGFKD
Proto-oncogene tyrosine-protein kinase receptor Ret (Homo sapiens), sequence (P07949 whole entry, the tested form may be a part): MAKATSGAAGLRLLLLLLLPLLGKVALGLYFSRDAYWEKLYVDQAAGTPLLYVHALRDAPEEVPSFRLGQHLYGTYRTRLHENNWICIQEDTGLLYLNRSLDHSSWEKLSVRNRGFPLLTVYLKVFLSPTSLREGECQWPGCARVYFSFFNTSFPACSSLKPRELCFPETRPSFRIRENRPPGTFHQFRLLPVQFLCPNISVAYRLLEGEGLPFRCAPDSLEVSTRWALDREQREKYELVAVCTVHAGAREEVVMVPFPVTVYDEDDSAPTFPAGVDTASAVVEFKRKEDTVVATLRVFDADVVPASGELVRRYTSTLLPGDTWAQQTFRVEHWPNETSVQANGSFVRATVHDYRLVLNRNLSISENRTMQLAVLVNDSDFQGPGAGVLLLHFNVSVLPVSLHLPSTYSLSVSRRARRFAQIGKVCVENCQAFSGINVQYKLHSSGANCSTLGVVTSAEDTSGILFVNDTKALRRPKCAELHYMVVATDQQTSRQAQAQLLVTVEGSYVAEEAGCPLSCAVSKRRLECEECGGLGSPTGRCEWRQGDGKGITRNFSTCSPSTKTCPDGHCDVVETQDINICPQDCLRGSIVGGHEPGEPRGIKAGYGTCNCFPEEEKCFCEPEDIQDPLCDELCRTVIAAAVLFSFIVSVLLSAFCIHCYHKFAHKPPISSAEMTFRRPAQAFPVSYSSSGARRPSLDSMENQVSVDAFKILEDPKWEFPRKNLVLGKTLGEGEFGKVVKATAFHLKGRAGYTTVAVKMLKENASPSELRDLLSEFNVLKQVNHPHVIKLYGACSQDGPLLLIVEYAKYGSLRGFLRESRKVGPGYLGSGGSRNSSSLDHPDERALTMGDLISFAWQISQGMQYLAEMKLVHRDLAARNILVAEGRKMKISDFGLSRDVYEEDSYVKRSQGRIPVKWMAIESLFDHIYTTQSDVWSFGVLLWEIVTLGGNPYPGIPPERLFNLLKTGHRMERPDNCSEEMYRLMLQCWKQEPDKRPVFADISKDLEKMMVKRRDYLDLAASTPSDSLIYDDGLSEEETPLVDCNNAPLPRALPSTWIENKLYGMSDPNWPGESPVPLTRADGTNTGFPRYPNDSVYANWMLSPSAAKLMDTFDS

CN1CCN(Cc2ccc(NC(=O)CCSc3ccc4c(/C=C/c5ccccn5)n[nH]c4c3)cc2C(F)(F)F)CC1
Cmax [1]: 87.7 ng/mL
IC50 [2]: 0.2 nM
Tmax [3]: 1.8 min
GI50 [4]: 35 nM
GI50 [5]: 4 nM
TGI (BaF3 [6]): Dose-dependent effect
EC50 (Bcr/Abl fusion protein [7]): < 10 nM
AUC(0-inf) [8]: 266 ng·h/mL
inhibition [9]: Dose-dependent effect
EC50 (Bcr/Abl fusion protein [10]): < 30 nM
MRT last [11]: 4.4 h
GI50 [12]: 2 nM
inhibition [13]: Dose-dependent effect
EC50 (Bcr/Abl fusion protein [14]): < 10 nM
Activity [15]: Non-Toxic
GI50 [16]: < 1 nM
GI50 [17]: 2340 nM
EC50 (Bcr/Abl fusion protein [18]): < 10 nM
GI50 [19]: 1360 nM
GI50 [20]: 6 nM
CL/F [21]: 723 mL/min/kg
GI50 [22]: 7 nM
Activity (MEG-01): Active
CLz/F [23]: 103 mL/min/kg
TGI (BaF3 [24]): Active
IC50 [25]: 17 nM
AUC(0-inf) [26]: 202 ng·h/mL
inhibition [27]: Active
inhibition [28]: Active
Vz [29]: 124.9 L/kg
GI50 [30]: 200 nM
Tmax [31]: 1.2 min
GI50 [32]: 920 nM
GI50 [33]: 42 nM
half-life [34]: 2.6 h
